The target of experiment [1] is T1, human GST-RIPK1 (Homo sapiens, UniProt Q13546).
T1 construct: GST; purchased signalchem
T1 sequence (Q13546 1-375 limits assumed): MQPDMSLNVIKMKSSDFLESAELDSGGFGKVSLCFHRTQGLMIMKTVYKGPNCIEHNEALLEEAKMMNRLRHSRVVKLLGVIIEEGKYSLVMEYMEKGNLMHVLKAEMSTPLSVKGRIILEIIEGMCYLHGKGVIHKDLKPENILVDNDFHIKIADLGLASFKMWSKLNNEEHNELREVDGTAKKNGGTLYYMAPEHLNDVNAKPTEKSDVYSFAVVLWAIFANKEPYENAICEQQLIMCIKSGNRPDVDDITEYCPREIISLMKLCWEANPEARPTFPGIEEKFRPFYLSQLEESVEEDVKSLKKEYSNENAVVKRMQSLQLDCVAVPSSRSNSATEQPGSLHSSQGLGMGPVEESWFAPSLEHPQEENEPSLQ
Briefly: RIPK1 inhibitory activity (ADP-Glo kinase assay). It is filed as biochemical. Particulars: human GST-RIPK1 10 ng, ATP 50 uM, 25° C. for 4 hours, read-out: Enzyme IC50. The protocol:
The following experiment was performed to evaluate the inhibitory activity of the example compounds according to the present invention against RIPK1 (receptor-interacting serine/threonine protein kinase 1).
The example compound was reacted with the purified human GST-RIPK1 (1375, signalchem) enzyme to evaluate the enzyme inhibitory activity in the following manner. The composition of the reaction buffer used herein was as follows: 40 mM Tris-Hcl pH 7.4, 20 mM MgCl2, 0.5 mg/ml, BSA and 0.5 uM DTT. All the test materials were reacted in the reaction buffer. After reacting human GST-RIPK1 (1375, 10 ng), purified ATP (50 uM) and a specific substrate solution at 25° C. for 4 hours, the enzyme activity was confirmed using an in vitro ADP-Glo™ kinase assay (promega). Luminoscence was measured by reacting the enzyme activity reaction solution, ADP-Glo reaction solution, and enzyme activity detection solution at the ratio of 2:2:1. The degree of enzyme activity inhibition according to the treatment concentration of each compound was calculated based on the fluorescence of the enzyme activity of the solvent control not treated with the compound. At this time, the concentration of each compound inhibiting 50% of the enzyme activity was determined as IC50 (nM). IC50 of each compound was determined with three data sets and calculated using Prism (version 7.01, GraphPad) software.
For orientation: In ADP-Glo the light output rises with the ADP produced.

Experiment [2] deals with human Jurkat T cells deficient in FADD. Briefly: Cell protection effect under apoptosis-inducing condition (TNF-α). It is filed as cell-based. The following applies: 40 ng of TNF-α, 50 hours, CellTiter-Glo, read-out: I2.I Cell EC50. The protocol:
The cell protection effect of the compounds according to the present invention under the condition of inducing apoptosis by TNF-α was confirmed by […]. An apoptosis inducing factor such as TNF-α was treated to induce apoptosis of human Jurkat T cells deficient in FADD, to which the example compound was treated, and the cell protection effect was confirmed through the following analysis. Jurkat T cells deficient in FADD were cultured using RPMI medium (Hyclone) containing 10% FBS. When performing the test, the cells were seeded in a 96-well plate containing a medium suitable for the cell line at the density of 10,000 cells/well, and cultured in a 37° C. 5% CO2 incubator for 24 hours. Then, each well was treated with 40 ng of TNF-α, and the compounds prepared in the above examples were each treated with a 3-fold concentration gradient with 1 μM as the highest concentration. As the solvent control, dimethyl sulfoxide (DMSO) was treated at the concentration of 0.05% (v/v), which was the same concentration as that used for the compound treatment. Then, the cells were cultured for 50 hours. To confirm the degree of viability of the cells, a mixture provided in CellTiter-Gloe Luminescent Cell Viability Assay Kit (Promega) was added to the culture medium of the cells, followed by further culture at 37° C. for 30 minutes. Then, luminescence fluorescence was measured. The degree of inhibition of apoptosis induction according to the treatment concentration of each compound was calculated based on the fluorescence of the solvent control cells not treated with the compound. At this time, the concentration of each compound inhibiting 50% was determined as EC50 (μM). EC50 of each compound was calculated using Prism (version 7.01, GraphPad) software.

Counter-ions that a name gives are not always drawn.

For the molecule `O=C(Nc1cccc(C#Cc2cnc3cccnn23)c1)N1N=CC[C@H]1c1cccc(F)c1` [Example 29, (S)-5-(3-fluorophenyl)-N-(3-(imidazo[1,2-b]pyridazin-3-ylethynyl)phenyl)-4,5-dihydro-1H-pyrazole-1-carboxamide 2,2,2-trifluoroacetate], the IC50 (in general, the concentration that inhibits the measured activity by half) in experiment [1] was found to be 5.83 nM. The EC50 (as a rule, the concentration at which the effect is half-maximal) in experiment [2] was determined as 0.3 nM.

On to `Cc1ccc(C(=O)N2N=CCC2c2ccccc2)cc1C#Cc1cnc2cccnn12` (stereo not shown) [Example 54, (3-(imidazo[1,2-b]pyridazin-3-ylethynyl)-4-methylphenyl)(5-phenyl-4,5-dihydro-1H-pyrazol-1-yl)methanone 2,2,2-trifluoroacetate], for which the concentration for half-maximal inhibition (IC50) in experiment [1] worked out at 32.6 nM. Also, the EC50 in experiment [2] is over 1000 nM.

Take `O=C(Nc1cccc(C#Cc2cnc3cccnn23)c1)N1N=CC[C@H]1c1ccc(F)cc1` [Example 32, (S)-5-(4-fluorophenyl)-N-(3-(imidazo[1,2-b]pyridazin-3-ylethynyl)phenyl)-4,5-dihydro-1H-pyrazole-1-carboxamide 2,2,2-trifluoroacetate]: in experiment [1], the 50% inhibitory concentration (IC50) was determined as 4.83 nM. Also, the EC50 in experiment [2] came to 0.63 nM.

In the case of `O=C(Nc1cccc(C#Cc2cnc3cccnn23)c1)N1N=CCC1c1ccccc1` (stereo not shown) [Example 19, N-(3-(imidazo[1,2-b]pyridazin-3-ylethynyl)phenyl)-5-phenyl-4,5-dihydro-1H-pyrazole-1-carboxamide 2,2,2-trifluoroacetate], the IC50 in experiment [1] was 3.8 nM. Further, the concentration giving a half-maximal response (EC50) in experiment [2] came out at 0.26 nM.

For `Cc1ccc(NC(=O)N2N=CCC2c2cccc(Cl)c2)cc1C#Cc1cnc2cccnn12` (stereo not shown) [Example 14, 5-(3-chlorophenyl)-N-(3-(imidazo[1,2-b]pyridazin-3-ylethynyl)-4-methylphenyl)-4,5-dihydro-1H-pyrazole-1-carboxamide 2,2,2-trifluoroacetate], in experiment [1], the IC50 stood at 5.3 nM. Also, the concentration giving a half-maximal response (EC50) in experiment [2] was 0.2 nM.

Take `O=C(Nc1cccc(C#Cc2cnc3cccnn23)c1)N1N=CCC1c1cc2ccccc2cn1` (stereo not shown) [Example 41, N-(3-(imidazo[1,2-b]pyridazin-3-ylethynyl)phenyl)-5-(isoquinolin-3-yl)-4,5-dihydro-1H-pyrazole-1-carboxamide]: in experiment [1], the half-inhibitory concentration (IC50) was determined as 33 nM. For the same molecule, the EC50 in experiment [2] came out at 64.6 nM.

As to `O=C(Nc1ccc(F)c(C#Cc2cnc3cccnn23)c1)N1N=CCC1c1ccccc1` (stereo not shown) [Example 44, N-(4-fluoro-3-(imidazo[1,2-b]pyridazin-3-ylethynyl)phenyl)-5-phenyl-4,5-dihydro-1H-pyrazole-1-carboxamide 2,2,2-trifluoroacetate], the IC50 in experiment [1] came to 18.1 nM. In addition, in experiment [2], the half-maximal effective concentration (EC50) was 0.37 nM.

Consider `O=C(Nc1cccc(C#Cc2cnc3cccnn23)c1)N1N=CC[C@@H]1c1cc(F)cc(F)c1` [Example 25, (R)-5-(3,5-difluorophenyl)-N-(3-(imidazo[1,2-b]pyridazin-3-ylethynyl)phenyl)-4,5-dihydro-1H-pyrazole-1-carboxamide 2,2,2-trifluoroacetate], for which the IC50 in experiment [1] stood at 878 nM. Further, the EC50 in experiment [2] is 364 nM.

Consider `O=C(Nc1cccc(C#Cc2cnc3cccnn23)c1)N1N=CCC1c1ccc(Cl)cc1` (stereo not shown) [Example 35, 5-(4-chlorophenyl)-N-(3-(imidazo[1,2-b]pyridazin-3-ylethynyl)phenyl)-4,5-dihydro-1H-pyrazole-1-carboxamide 2,2,2-trifluoroacetate], for which, in experiment [1], the IC50 was found to be 61.6 nM. The half-maximal effective concentration (EC50) in experiment [2] is 3.87 nM.

With `Cc1ccc(NC(=O)N2N=CC[C@@H]2c2ccccc2)cc1C#Cc1cnc2cccnn12` [Example 3, (R)—N-(3-(imidazo[1,2-b]pyridazin-3-ylethynyl)-4-methylphenyl)-5-phenyl-4,5-dihydro-1H-pyrazole-1-carboxamide 2,2,2-trifluoroacetate], in experiment [1], the concentration for half-maximal inhibition (IC50) was found to be 221 nM. In addition, the half-maximal effective concentration (EC50) in experiment [2] came to 314 nM.

For the molecule `O=C(c1cccc(C#Cc2cnc3cccnn23)c1)N1N=CCC1c1ccccc1` (stereo not shown) [Example 53, (3-(imidazo[1,2-b]pyridazin-3-ylethynyl)phenyl)(5-phenyl-4,5-dihydro-1H-pyrazol-1-yl)methanone 2,2,2-trifluoroacetate], in experiment [1], the IC50 worked out at 731 nM. Also, the EC50 in experiment [2] worked out at 975 nM.

Regarding `O=C(Nc1ccnc(C#Cc2cnc3cccnn23)c1)N1N=CC[C@@H]1c1ccccc1` [Example 50, (R)—N-(2-(imidazo[1,2-b]pyridazin-3-ylethynyl)pyridin-4-yl)-5-phenyl-4,5-dihydro-1H-pyrazole-1-carboxamide 2,2,2-trifluoroacetate], the IC50 in experiment [1] is over 1000 nM. The EC50 in experiment [2] stood at 197 nM.

In the case of `O=C(Nc1ccc(F)c(C#Cc2cnc3cccnn23)c1)N1N=CC[C@H]1c1ccccc1` [Example 45, (S)—N-(4-fluoro-3-(imidazo[1,2-b]pyridazin-3-ylethynyl)phenyl)-5-phenyl-4,5-dihydro-1H-pyrazole-1-carboxamide 2,2,2-trifluoroacetate], the half-inhibitory concentration (IC50) in experiment [1] is 8.8 nM. In experiment [2], the EC50 turned out to be 0.09 nM.

`Cc1ccc(NC(=O)N2N=CC[C@H]2c2ccccc2)cc1C#Cc1cnc2cccnn12` [Example 2, (S)—N-(3-(imidazo[1,2-b]pyridazin-3-ylethynyl)-4-methylphenyl)-5-phenyl-4,5-dihydro-1H-pyrazole-1-carboxamide 2,2,2-trifluoroacetate]: the IC50 in experiment [1] is 5.1 nM. For the same molecule, the concentration giving a half-maximal response (EC50) in experiment [2] is 0.06 nM.

As to `O=C(Nc1ccnc(C#Cc2cnc3cccnn23)c1)N1N=CC[C@H]1c1ccccc1` [Example 49, (S)—N-(2-(imidazo[1,2-b]pyridazin-3-ylethynyl)pyridin-4-yl)-5-phenyl-4,5-dihydro-1H-pyrazole-1-carboxamide 2,2,2-trifluoroacetate], the IC50 in experiment [1] came to 1.9 nM. Moreover, in experiment [2], the EC50 came out at 0.3 nM.

Take `O=C(Nc1cncc(C#Cc2cnc3cccnn23)c1)N1N=CCC1c1ccccc1` (stereo not shown) [Example 51, N-(5-(imidazo[1,2-b]pyridazin-3-ylethynyl)pyridin-3-yl)-5-phenyl-4,5-dihydro-1H-pyrazole-1-carboxamide 2,2,2--trifluoroacetate]: the 50% inhibitory concentration (IC50) in experiment [1] was determined as 1.22 nM. Further, the EC50 in experiment [2] was 1.84 nM.

With `Cc1ccc(NC(=O)N2N=CC[C@@H]2c2cccc(F)c2)cc1C#Cc1cnc2cccnn12` [Example 10, (R)-5-(3-fluorophenyl)-N-(3-(imidazo[1,2-b]pyridazin-3-ylethynyl)-4-methylphenyl)-4,5-dihydro-1H-pyrazole-1-carboxamide 2,2,2-trifluoroacetate], in experiment [1], the IC50 came out at 801 nM. The EC50 in experiment [2] is 326 nM.

`O=C(Nc1cccc(C#Cc2cnc3cccnn23)c1)N1N=CC[C@H]1c1ccccc1` [Example 20, (S)—N-(3-(imidazo[1,2-b]pyridazin-3-ylethynyl)phenyl)-5-phenyl-4,5-dihydro-1H-pyrazole-1-carboxamide hydrochloride]: the IC50 in experiment [1] was found to be 0.52 nM. In addition, the EC50 in experiment [2] came to 0.021 nM.

Turning to `O=C(Nc1cccn2c(C#Cc3cccc(NC(=O)N4N=CCC4c4ccccc4)c3)cnc12)C1CCC1` (stereo not shown) [Example 63, N-(3-((8-(cyclobutanecarboxamido)imidazo[1,2-a]pyridin-3-yl)ethynyl)phenyl)-5-phenyl-4,5-dihydro-1H-pyrazole-1-carboxamide 2,2,2-trifluoroacetate], the IC50 in experiment [1] was 39.6 nM. Moreover, the EC50 in experiment [2] amounted to 0.9 nM.

In the case of `S=C(Nc1cccc(C#Cc2cnc3cccnn23)c1)N1N=CCC1c1ccccc1` (stereo not shown) [Example 43, N-(3-(imidazo[1,2-b]pyridazin-3-ylethynyl)phenyl)-5-phenyl-4,5-dihydro-1H-pyrazole-1-carbothioamide], in experiment [1], the half-maximal inhibitory concentration (IC50) stood at 277 nM. Also, the EC50 in experiment [2] came to 6.7 nM.

Values taken from patent publication US20210284647A1, “N-(3-(IMIDAZO[1,2-B]PYRIDAZIN-3-YLETHYNYL)-4-METHYLPHENYL)-5-PHENYL-4,5-DIHYDRO-1H-PYRAZOLE-1-CARBOXAMIDE DERIVATIVE, AND PHARMACEUTICAL COMPOSITION CONTAINING SAME AS ACTIVE INGREDIENT FOR TREATING KINASE-RELATED DISEASES” (VORONOIBIO INC., priority 2018, published 2021).
